One data set concerns Pfeiffer. Description: Compound 67A sensitivity of CRISPR screen cell line Pfeiffer. It is filed as cell-based. As to conditions: Homo sapiens, Lymphoma. An excerpt: Three cell lines with varying sensitivities to Compound 67A were utilized in the CRISPR screen (Table 3, FIG. 11).
A further data set relates to Raji lymphoma cells. Description: Seahorse XF ECAR and OCR measurement. As to conditions: Seahorse XF Analyzer. It is filed as cell-based. As for the experimental part: The utilization of glycolysis and oxidative phosphorylation (OXPHOS) were measured by the extracellular acidification rate (ECAR) and oxygen consumption rate (OCR), respectively, in Raji lymphoma cells via the Seahorse XF Analyzer.

Data set [1] deals with Daudi human lymphoma cells. Briefly: Reversal of 3-bromopyruvate-induced cytotoxicity. It is filed as cell-based. As to conditions: 3-bromopyruvate (MCT1 substrate). As for the experimental part:
Compound 67A data across 439 cell lines was cross-compared with available DepMap gene essentiality data and gene expression data. A genome-wide CRISPR screen identified genes that influenced sensitivity to Compound 67A. MDCKII cells expressing human MCT1 were treated with Compound 67A and transport of the MCT1 substrate, 2-thiophene-glyoxylic acid, was quantified by LC-MS. Compound 67A-mediated reversal of cytotoxicity induced by 3-bromopyruvate, an MCT1 substrate, was measured in Daudi human lymphoma cells. Lactate was measured using Lactate-Glo. Extracellular acidification and O2 consumption were measured by Seahorse.

The subject of data set [2] is ES2 ovarian cancer cell line. Briefly: ES2 cytotoxicity (Cytotox Green) and cell viability (CellTiterGlo, NCI method). It is filed as cell-based. Here is the method:
MCT4 was over-expressed in ES2 cells following lentiviral transduction. Cell viability was assessed in empty vector (EV) control and MCT4 over-expressing cells after Compound 67A treatment and relative cell growth was quantified using the NCI method (FIG. 10).
The ES2 ovarian cancer cell line was treated with a titration of Compound 67A, and cytotoxicity was assessed after 24 hours of treatment with Cytotox Green and cell viability after 96 hours with CellTiterGlo (FIG. 18).

Data set [3] has as its system Daudi (Burkitt Lymphoma) cells. Briefly: Intracellular Lactate Accumulation Assay (Lactate-Glo). It is filed as cell-based, human. As for the experimental part:
Intracellular lactate accumulation after a 2 h treatment with compounds of the present invention was measured in Daudi (Burkitt Lymphoma) cells using the Lactate-Glo Assay (Promega).
Daudi cells were seeded at 7,500 cells per well in 150 μL of growth medium (RPMI-1640 with 2 mM GlutaMAX+10% FBS) in clear, 96-well, flat-bottom microplates, and incubated overnight (37° C., 5% CO2). Compounds of the present invention were added using an INTEGRA VIAFLO 96 (8 point, 3-fold serial dilution, top concentration 1, 10, or 20 μM, 0.4% final DMSO concentration). After a 2 h incubation (37° C., 5% CO2) microplates containing cells were washed twice with 150 μL ice-cold PBS, resuspended in 25 μL ice-cold PBS containing 12.5 μL 0.6N HCl, and placed on a microplate shaker for 5 min to lyse the cells. Following lysis, 12.5 μL 1M Trizma base was added to neutralize the suspension, and microplates were returned to the microplate shaker for 1 min. Plates were sealed and stored at −20° C. until further processing. On the day of the assay, microplates were thawed for 45 min at room temperate and 50 μL Lactate Detection Reagent (prepared as specified by manufacturer) was added to each well. Microplates were placed on a plate shaker for 1 min and incubated at room temperature for 1 h. Luminescence was measured using a BioTek Cytation 5 Multi-Mode Reader. Curve fitting and calculation of EC50 was performed using GraphPad Prism.
In addition, Daudi human lymphoma cells were treated with a titration of Compound 67A for 4 h, then intracellular lactate was measured via LactateGlo (FIG. 2). Compound 67A treatment elevates intracellular lactate (FIGS. 3-5). […] Inhibiting MCT function in glycolytic cancer cells leads to an accumulation of intracellular lactate that impairs glycolysis and inhibits tumor cell growth, thereby making MCTs an attractive target for cancer therapy. Compound 67A inhibits the import of MCT ligands into cells, and induces dose-dependent intracellular lactate accumulation that correlates with cytotoxicity. MCT4 expression inversely correlates with lactate accumulation and the extent of Compound 67A cytotoxicity in cells.

With `CC(C)OC(=O)Nc1ccc(-c2cnc([C@H]3CC[C@H](NC(=O)OC(C)C)CC3)s2)c(S(=O)(=O)NC(C)(C)C)c1` [Compound 67A], 0.52 µM corresponded to half-maximal inhibition in the data set with Pfeiffer (IC50). In the data set on Raji lymphoma cells, the “extracellular acidification rate (ECAR)” value is given as “dose-dependent decrease in ECAR” and the “oxygen consumption rate (OCR)” value is “concomitant increase in OCR”. Besides, the “protection from cytotoxic effects of 3-bromopyruvate” value in data set [1] is listed as “protected cells from the cytotoxic effects of 3-bromopyruvate”. The cytotoxic response entry in data set [2] (ES2, Cytotox Green after 24 hours and CellTiterGlo after 96 hours) was “induced a clear cytotoxic response”. Besides, the “effect of MCT4 over-expression on anti-proliferative effects” value in data set [2] (ES2 MCT4 over-expressing vs empty vector control, NCI method) is reported as “significantly reduced Compound 67A-mediated anti-proliferative effects”. The IC50 in data set [3] (Daudi human lymphoma cells, 4 h treatment, LactateGlo, read-out: induces lactate accumulation, IC50) is 0.37 µM. For the same molecule, the EC50 in data set [3] (Homo sapiens, Daudi cells, 2 h treatment, intracellular lactate accumulation, read-out: LactateGlo EC50) lay within 0.15 to 1 µM.

(Values after patent publication US20250186404A1, “METHODS OF USING A (THIAZOLYL)BENZENESULFONAMIDE DERIVATIVE” (Cyteir Therapeutics, Inc., priority 2023, published 2025).)
